Measurements: patent US4618682A, “2-amino-4,5-dihydro-1H-imidazole-1-carboxanilides” (McNeilab, Inc., priority 1985, dated 1986)
Counter-ions that a name gives are not always drawn.

What follows are compounds tested on Spontaneously hypertensive rat (assay: Rodent Antihypertensive Screen (arterial pressure and heart rate, aortic cannula)). Conditions: 35 mg/kg p.o., spontaneously hypertensive rat.
Type: in vivo, adult spontaneously hypertensive rats (Charles River)
From the text: This test evaluates compounds for effects on arterial pressure and heart rate. In this test, the arterial pressure of adult spontaneously hypertensive rats (Charles River) is monitored directly via an aortic cannula. Rats are anesthetized with an inhalation anesthetic (methoxyflurane). The left carotid artery is isolated and cannulated. The tip of the cannula is advanced to the aorta and the cannula is exteriorized behind the neck at the level of the scapula. Animals are placed in individual cages and allowed to recover from the anesthetic and are kept unrestrained. The arterial cannula is connected to the pressure transducer which is attached to the recorder. Heart rate is determined from the arterial pressure recording. The test compounds are administered either orally (p.o.) by gavage or by intraperitoneal (i.p.) injection. The arterial pressure and heart rate are monitored for a minumum of 24 hours. A test compound is considered to be active as an antihypertensive agent if the mean arterial pressure (MAP) indicates a fall of >15 mm of Hg. Each animal serves as his own control. The results of this test employing at least 3 rats per dose level for each compound and performed with various compounds of the present invention are shown in Table I.
With `Cl.NC1=NCCN1C(=O)Nc1ccccc1C(F)(F)F` [Example 25, 2-Amino-4,5-dihydro-N-(2-trifluoromethylphenyl)-1H-imidazole-1-carboxamide Monohydrochloride] the Duration was 0.5 h, the “Effect on heart rate” value was -21 beats/min and the “Max. decr. in MAP” value was 32 mm Hg.
With `Cc1cccc(C)c1NC(=O)N1CCN=C1N.Cl` [Example 5, 2-Amino-N-(2,6-dimethylphenyl)-4,5-dihydro-1H-imidazole-1-carboxamide Monohydrochloride] the Duration was 1.0 h, the “Effect on heart rate” value was -27 beats/min and the “Max. decr. in MAP” value was 23 mm Hg.
`Cc1ccc(NC(=O)N2CCN=C2N)cc1` [Example 2, 2-Amino-4,5-dihydro-N-(4-methylphenyl)-1H-imidizole-1-carboxamide Monohydrochloride Hydrate (4:1)] was tested, and the Duration was 6.0 h, the “Effect on heart rate” value was -162 beats/min and the “Max. decr. in MAP” value was 54 mm Hg.
For `Cl.NC1=NCCN1C(=O)Nc1cccc(Cl)c1Cl` [Example 10, 2-Amino-N-(2,3-dichlorophenyl)-4,5-dihydro-1H-imidazole-1-carboxamide Monohydrochloride], the Duration was 1.0 h, the “Effect on heart rate” value was -66 beats/min and the “Max. decr. in MAP” value was 19 mm Hg.
With `COc1ccc(NC(=O)N2CCN=C2N)cc1.Cl` [Example 20, 2-Amino-4,5-dihydro-N-(4-methoxyphenyl)-1H-imidazole-1carboxamide Monohydrochloride] the Duration was 1.0 h, the “Effect on heart rate” value was -38 beats/min and the “Max. decr. in MAP” value was 16 mm Hg.
With `Cl.NC1=NCCN1C(=O)Nc1cc(Cl)ccc1Cl` [Example 7, 2-Amino-N-(2,5-dichlorophenyl)-4,5-dihydro-1H-imidazole-1carboxamide Monohydrochloride] the Duration was 1.0 h, the “Effect on heart rate” value was -48 beats/min and the “Max. decr. in MAP” value was 37 mm Hg.

Same assay, conditions: 100 mg/kg p.o., spontaneously hypertensive rat
With `COc1ccc(NC(=O)N2CCN=C2N)cc1OC` [Example 4, 2-Amino-N-(3,4-dimethoxyphenyl)-4,5-dihydro-1H-imidazole-1-carboxamide Monohydrochloride Hydrate (4:1)] the Duration was 11 h, the “Effect on heart rate” value was -215 beats/min and the “Max. decr. in MAP” value was 47 mm Hg.

Same assay, conditions: versus corresponding ureas IV
With `Cc1cccc(C)c1NC(=O)N1CCN=C1N.Cl` [Example 5, 2-Amino-N-(2,6-dimethylphenyl)-4,5-dihydro-1H-imidazole-1-carboxamide Monohydrochloride] the “antihypertensive activity compared with corresponding rearranged N-aryl-N'-(4,5-dihydro-1H-imidazol-2-yl) ureas IV” value was “significantly less antihypertensive activity”.
`Cc1ccc(NC(=O)N2CCN=C2N)cc1` [Example 2, 2-Amino-4,5-dihydro-N-(4-methylphenyl)-1H-imidizole-1-carboxamide Monohydrochloride Hydrate (4:1)] was tested, and the “antihypertensive activity compared with corresponding rearranged N-aryl-N'-(4,5-dihydro-1H-imidazol-2-yl) ureas IV” value was “more potent antihypertensive activity”.

What follows are compounds tested on Gastric fistula rat (assay: acute gastric fistula rat test (antisecretory screen)). Conditions: intraduodenal, 20 mg/kg I.D., read-out: % Inhibition of gastric secretion.
Type: in vivo, Female Sprague-Dawley rats
Protocol: The principal antisecretory screen is the acute gastric fistula rat test which is carried out as follows: Female Sprague-Dawley rats are used for this study. The weights range from 125-250 gms; however, weights in any given test have a range of ±20 gms. The rats are fasted 24 hours before testing, water is given ad lib. At the time of fasting, the rats are placed in individual cages with wide mesh bottoms. This eliminates the problem of cannibalism and coprophagia. On the day of testing, the rats are weighed beforehand to determine the weight range and to allow for even distribution. Surgery is carried out under light ether anesthesia. As soon as the rat is anesthetized, its teeth are removed using a small pinch pliers. A midline incision is made on the abdomen about 11/2 cm long and the stomach is exposed. If, at this point, the stomach is filled with food or fecal material, the rat is discarded except for orally administered rats. In this case, the stomach contents are gently squeezed into the duodenum. Using a 4-0 polyester fiber suture, a purse string stitch is placed on the fundic portion of the stomach taking care to avoid any blood vessels in the area. A small nick is made into the stomach in the center of the purse string and a cannula, consisting of a small vinyl tube with a flange on one end, is put into the stomach and the purse string is closed tightly around the flange. Immediately following this, the rat is dosed intraduodenally using a volume of 0.5 ml per 100 gm body weight. The abdominal wall and skin are closed simultaneously with three to four 18 mm wound clips. The rat is then placed in a box containing a longitudinal slit which allows the cannula to hang freely and the rat is able to move about unencumbered. At the completion of the procedure, the time is marked 0 minutes. The rat is allowed to stabilize for 30 minutes, at which time the collection tube is discarded and replaced with a clean collection tube to receive the gastric juice. Only a one-hour collection is made for a screening study. In evaluation studies, one- and two-hour collections are made. At the end of the study, the cannula is pulled out and the rat is sacrificed. The gastric contents collected are drained into a centrifuge tube and centrifuged to pack down the sediment. The volume is read and a 1 ml aliquot of the supernatant is put into a beaker containing distilled water and titrated to pH 7 using 0.01 N NaOH. Mean values are determined for volume, titratable acid and total acid output where volume equals total ml of gastric juice minus sediment, titratable acid (mEq/1) equals amount of 0.01 N NaOH needed to titrate the acid to pH 7 times 10 and total acid output equals titratable acid times volume. Results are reported in percent inhibition over control values. In studies using oral administration, the drugs are dosed in a volume of 1 ml per 100 gm body weight one hour before surgery (pretreatment equals 90 minutes). In subcutaneous studies, the drug may be given immediately after the surgical procedure (pretreatment equals 30 minutes) or after the 30-minute stabilization period when the collection tube is changed (pretreatment time equals 0 minutes). The volume used in subcutaneous studies is 0.2 ml per 100 gm body weight.
`Cc1cccc(C)c1NC(=O)N1CCN=C1N.Cl` [Example 5, 2-Amino-N-(2,6-dimethylphenyl)-4,5-dihydro-1H-imidazole-1-carboxamide Monohydrochloride] was tested, and the inhibition in vivo at 20 mg/kg was 88%.
Work on `Cc1ccc(NC(=O)N2CCN=C2N)cc1` [Example 2, 2-Amino-4,5-dihydro-N-(4-methylphenyl)-1H-imidizole-1-carboxamide Monohydrochloride Hydrate (4:1)] yielded an inhibition in vivo at 20 mg/kg of 99%.
Compound `Cl.NC1=NCCN1C(=O)Nc1cccc(Cl)c1Cl` [Example 10, 2-Amino-N-(2,3-dichlorophenyl)-4,5-dihydro-1H-imidazole-1-carboxamide Monohydrochloride] has an inhibition in vivo at 20 mg/kg of 70%.
In the case of `CCc1cccc(C)c1NC(=O)N1CCN=C1N.Cl` [Example 17, 2-Amino-4,5-dihydro-N-(2-ethyl-6-methylphenyl)-1H-imidazole-1carboxamide Monohydrochloride], the inhibition in vivo at 20 mg/kg is reported as 91%.
With `Cc1cccc(Cl)c1NC(=O)N1CCN=C1N` [Example 15, 2-Amino-N-(2-chloro-6-methylphenyl)-4,5-dihydro-1H-imidazole-1-carboxamide Monohydrochloride Hydrate (8:1)] the inhibition in vivo at 20 mg/kg was 77%.
`COc1cccc(NC(=O)N2CCN=C2N)c1` [Example 19, 2-Amino-4,5-dihydro-N-(3-methoxyphenyl)-1H-imidazole-1carboxamide Monohydrochloride Hydrate (5:1)] showed an inhibition in vivo at 20 mg/kg of 74%.
With `NC1=NCCN1C(=O)Nc1ccccc1` [Example 23, 2-Amino-4,5-dihydro-N-phenyl-1H-imidazole-1-carboxamide Monohydrochloride Hydrate (5:3)] the inhibition in vivo at 20 mg/kg was 92%.
Compound `Cc1ccccc1NC(=O)N1CCN=C1N` [Example 24, 2-Amino-4,5-dihydro-N-(2-methylphenyl)-1H-imidazole-1-carboxamide Monohydrochloride] has an inhibition in vivo at 20 mg/kg of 65%.
For `NC1=NCCN1C(=O)Nc1c(Br)cccc1Br` [Example 16, 2-Amino-4,5-dihydro-N-(2,6-dibromophenyl)-1H-imidazole-1-carboxamide Monohydrochloride], the inhibition in vivo at 20 mg/kg was 64%.

Same assay, conditions: po, 1 hr
For `Cc1ccc(NC(=O)N2CCN=C2N)cc1` [Example 2, 2-Amino-4,5-dihydro-N-(4-methylphenyl)-1H-imidizole-1-carboxamide Monohydrochloride Hydrate (4:1)], the ED50 was 4.6 mg/kg.
`CCc1cccc(C)c1NC(=O)N1CCN=C1N.Cl` [Example 17, 2-Amino-4,5-dihydro-N-(2-ethyl-6-methylphenyl)-1H-imidazole-1carboxamide Monohydrochloride] gave an ED50 of 24.5 mg/kg.
